Measured values: EP0626943B1, “BISTRIAZENES AS CHEMOTHERAPEUTIC AGENTS” (THE GOVERNMENT OF THE UNITED STATES OF AMERICA as …, priority 1991, dated 1993)
Read-outs that look alike come from different tables or passages of the source.

Experiments:
[1] = test system: human tumor cell lines; experiment: Clonogenic assay against a panel of human tumor cells (Figures 1-4); format: cell-based; details: for cytotoxicity, overall statement: clonogenic assay, no concentration given
Experimental: Clonogenic Assay. The response of a variety of human tumor cell lines to bistriazenes was determined via the clonogenic assay described in Fiebig et al. (1987) European Journal of Cancer and Clinical Oncology 23: 937-948.
(§1) Briefly, the assay system consists of a modified, two-layer soft agar culture system. The bottom layer consists of 1 ml of modified Dulbecco medium supplemented with L-glutamine, containing 10% fetal calf serum and 0.5% agar, in a 35 mm petri-dish. The upper layer contains 2-5 x 10^5 viable human tumor cells suspended in a 1 ml volume, consisting of 0.3% agar, 30% fetal calf serum, and the medium. The drugs to be tested, contained in 1 ml of medium containing 30% fetal calf serum, are included in the upper layer. Control plates are identical, except for the omission of the drugs. The plates are incubated at 37°C in a humidified atmosphere containing 7% carbon dioxide for varying periods (7-21 days). The time in culture is determined by the rate of colony formation in the control plates. At the end of the culture period, the number of colonies in the drug treated cultures is compared to the number of colonies in the control plates, after visualization of the live colonies by staining with tetrazolium chloride.
The tumors included those derived from colon cancer, three types of lung cancer, mammary cancer, ovarian cancer, two types of kidney cancer, a mesothelioma, a gastric cancer, and a sarcoma. These tumors represent some of the most important cancers for which current treatments are inadequate. For comparison, the assays of the various bistriazenes were compared to the response induced in the same tumors by DTIC, a drug employed in clinical practice.

[2] = test system: 32P-endlabeled oligonucleotide; experiment: Oligonucleotide crosslinking assay; format: biochemical; details: 37°C, 42 hours, pH 7.4
Experimental: A solution of 6.2 ng of ^32P-endlabeled oligonucleotide in 0.1 M cacodylic acid buffer (0.1 M NaCl, pH 7.4) was allowed to react with the desired compound dissolved in 1/10 volume DMSO. Final concentrations of the compounds in the oligonucleotide solution were 0.1 mM NMUST, 1.0 mM CCNU, or 10 mM bistriazene. Reactions were incubated at 37°C for 42 hours, and analyzed by denaturing polyacrylamide gel electrophoresis (20% gel) followed by autoradiography. the gels were intentionally overexposed to better visualize bands corresponding to interstrand crosslinks. Large amounts of unreacted oligonucleotides were also visualized under these conditions.

[3] = test system: LXFL 529; experiment: Clonogenic assay (two-layer soft agar culture); format: cell-based; details: Homo sapiens
Experimental: as §1

[4] = test system: PRCL DU145X; experiment: Clonogenic assay (two-layer soft agar culture); format: cell-based; details: Homo sapiens, read-out: Test/Control (%) at Drug Concentration (µg/ml)
Experimental: as §1

[5] = test system: RXF 1220; experiment: Clonogenic assay (two-layer soft agar culture); format: cell-based; details: Homo sapiens, read-out: Test/Control (%) at Drug Concentration (µg/ml)
Experimental: as §1

[6] = Solubility observed on isolation; format: physicochemical
Experimental: A solution of 3.95 g (25 mmoles) of 2-bromopyridine in 20 ml of dry pentane was added dropwise to 10 ml. of 2.5M butylithium in hexane at -78°C. To the resulting yellow slurry was added dropwise with stirring 1.75 g (12.5 mmoles) of 1,4-diazidobutane in 10 ml. of pentane. Stirring was continued for 2 hr. at -78° and then the reaction mixture was allowed to warm to room temperature. The reaction mixture was treated with 60 ml. of ammonium buffer which caused a precipitate to appear after the reaction was cooled to -78°C. The solid was filtered off. […] The yield was 2.3 g., m.p. 133-136. Spectroscopic data were consistent with the structure.
A solution of butyllithium in hexane (5 ml., 2.5M) was dissolved in 10 ml. of tetrahydrofuran and cooled to -78°C. To this was added dropwise with stirring a solution of 1.98 g (12.5 mmoles) of 2-bromopyridine in 10 ml. of tetrahydrofuran. The dark yellow solution of the pyridine anion was mixed with a solution of 0.70 g (6.2 mmoles) of 1,2-diazidoethane in 10 ml. of tetrahydrofuran at -78°C. After 1 hr. of stirring the dark green solution was treated with 10 ml. of ammonium buffer. The color changed to yellow. The organic solvent was removed in vacuo, and the precipitate was isolated by filtration and washed with copious quantities of diethylether. The powdery material was finally dried under high vacuum. The yield was 770 mg. […] The spectra, however, were fully consistent with the structure.

[7] = 1 ug/ml, panel of human tumor cell lines
[8] = 10 ug/ml, panel of human tumor cell lines
[9] = 100 ug/ml, panel of human tumor cell lines
[10] = LXFL 529, read-out: Test/Control (%) at Drug Concentration (µg/ml)
[11] = 1.0 µg/ml, LXFL 529 large cell lung cancer line, read-out: Test/Control (%) at Drug Concentration (µg/ml)
[12] = 10.0 µg/ml, LXFL 529 large cell lung cancer line, read-out: Test/Control (%) at Drug Concentration (µg/ml)
[13] = 100.0 µg/ml, LXFL 529 large cell lung cancer line, read-out: Test/Control (%) at Drug Concentration (µg/ml)
[14] = 1.0 µg/ml, PRCL DU145X prostate carcinoma
[15] = 10.0 µg/ml, PRCL DU145X prostate carcinoma
[16] = 100.0 µg/ml, PRCL DU145X prostate carcinoma
[17] = 1.0 µg/ml, RXF 1220 renal carcinoma
[18] = 10.0 µg/ml, RXF 1220 renal carcinoma
[19] = 100.0 µg/ml, RXF 1220 renal carcinoma

| SMILES | cytotoxic activity [1, 8] | cytotoxic activity [1, 9] | cytotoxicity, overall statement [1] | activity at 1 µg/mL [3, 11] | activity at 10 µg/mL [3, 12] | activity at 100 µg/mL [3, 13] | activity at 1 µg/mL [4, 14] | activity at 10 µg/mL [4, 15] | activity at 100 µg/mL [4, 16] | activity at 1 µg/mL [5, 17] | activity at 10 µg/mL [5, 18] | activity at 100 µg/mL [5, 19] | other results |
| --- | --- | --- | --- | --- | --- | --- | --- | --- | --- | --- | --- | --- | --- |
| CNN=NC/C=C/CN=NNC [1,4-bis(methyltriazeno)-trans-2-butene, 1,4-Bis(methyltriazeno)-trans-2-butene] | activity persisted at 10 ug/ml, especially for the large cell lung carcinoma LXFL529 and the renal cancer RXF423/17 | potent cytotoxic activity against all the tumors tested | highly potent against several tumors, especially the large cell lung carcinoma | – | – | – | – | – | – | – | – | – | cytotoxic activity [1, 7]: still significant activity against the lung cancer; interstrand crosslinking of oligonucleotides ([2]; 10 mM bistriazene): produce stable crosslinked species in oligonucleotides |
| O=NN(CCCl)C(=O)NC1CCCCC1 [CCNU, 1-(2-chloroethyl)-3-cyclohexyl-1-nitrosourea, reference compound] | – | – | – | – | – | – | – | – | – | – | – | – | interstrand crosslinking of oligonucleotides ([2]; 1.0 mM CCNU): not as effective at forming crosslinks as the p-xylyl bistriazene derivative |
| O=P1(N(CCCl)CCCl)NC(OO)CCO1 (stereo not shown) [CYCM, 4-hydroperoxycyclophosphamide, reference compound] | – | – | – | – | – | – | – | – | – | – | – | – | activity at 1 µg/mL [3, 10]: 115%; activity at 10 µg/mL [3, 10]: 94%; activity at 100 µg/mL [3, 10]: 19%; activity at 1 µg/mL [4]: 108%; activity at 10 µg/mL [4]: 90%; activity at 100 µg/mL [4]: 47%; activity at 1 µg/mL [5]: 67%; activity at 10 µg/mL [5]: 51%; activity at 100 µg/mL [5]: 9% |
| CN(C)N=Nc1[nH]cnc1C(N)=O [DTIC, 5-(3,3-dimethyltriazeno)imidazole-4-carboxamide, reference compound] | – | – | – | 63% | 35% | 8% | 70% | 44% | 43% | 54% | 44% | 24% | cytotoxic activity ([1]; 3 ug/ml, panel of human tumor cell lines): marginal activity against the gastric cancer; cytotoxic activity ([1]; 30 ug/ml, panel of human tumor cell lines): activity against the gastric carcinoma GXF251/16 and the ovarian cancer OVXF899/9; cytotoxic activity ([1]; 300 ug/ml, panel of human tumor cell lines): potently cytotoxic on all cell lines |
| c1cncc(N=NNCCNN=Nc2cccnc2)c1 [Example 1a, bis(3-pyridyltriazeno)ethane] | – | – | potently cytotoxic | 51% | 0% | 0% | 84% | 44% | 0% | 99% | 74% | 4% | – |
| c1cncc(N=NNCCCCNN=Nc2cccnc2)c1 [Example 1b] | – | – | potently cytotoxic | 71% | 1% | 1% | 94% | 62% | 4% | 82% | 70% | 8% | – |
| CNN=NCc1ccc(CN=NNC)cc1 [bis(methyltriazeno)-p-xylene, 1,4-Bis(methyltriazenomethyl)benzene] | toxicity against approximately half of the cell lines examined | highly toxic to all tumor cell lines | – | – | – | – | – | – | – | – | – | – | cytotoxic activity [1, 7]: Some activity was also evident at a dose of 1 ug/ml in about half the cell lines; interstrand crosslinking of oligonucleotides ([2]; 10 mM bistriazene, listed as p-xylyl): produce stable crosslinked species in oligonucleotides; interstrand crosslinking of oligonucleotides ([2]; 10 mM bistriazene, listed as p-xylyl bistriazene): stably covalently crosslinked |
| CNN=NCCN=NNC [bis(methyltriazeno)ethane, 1,2-Bis(methyltriazeno)ethane] | only marginal, but significant, activity was seen in the large cell lung cancer and in the mammary cancer | highly cytotoxic at 100 ug/ml to most of the tumor cell lines | – | – | – | – | – | – | – | – | – | – | cytotoxic activity ([1]; 100 ug/ml, mesothelioma, gastric carcinoma, renal cancer RXF 423/17): Relatively little or no activity |
| c1ccc(NN=NCCCCN=NNc2ccccn2)nc1 [compound 14, 1,4-Bis(2-pyridyltriazeno)butane] | – | – | – | – | – | – | – | – | – | – | – | – | solubility ([6]; common solvents): poorly soluble in common solvents such as halomethanes, acetone, methanol and water; solubility ([6]; dimethylsulfoxide): sparingly soluble |
| c1ccc(NN=NCCN=NNc2ccccn2)nc1 [compound 15, 1,2-Bis(2-pyridyltriazeno)ethane] | – | – | – | – | – | – | – | – | – | – | – | – | solubility ([6]; common solvents): not soluble in most solvents, except dimethylsulfoxide |
